Converted amounts (≈) assume the structure as drawn.
Key:
STHdhQ111/111 cells = test: ER stress (tunicamycin)-induced apoptosis in STHdhQ111/111 cells; format: cell-based, murine; conditions: 10 μM compound, tunicamycin 48 hours, read from FIG. 2
Description: FIG. 2 presents comparative plots showing the apoptosis rate of STHdh^Q111/111 cells as a function of concentration of the exemplary compounds GLB11 and GLC19, following incubation with tunicamycin for 48 hours), as described for FIG. 1. P values *<0.05, **<0.01, ***<0.001. The asterisks indicate the significance compared to untreated cells.
Cell culture and transfections: Mouse embryonic fibroblasts (MEF) cells were grown as described in the art. Murine striatal cell line expressing full-length polyQ-expanded Htt (STHdhQ111/111) cells were grown as described in Leitman et al. [PLOS One 2014, 9 (3): e90803]. HEK 293 and VERO cells were grown in DMEM supplemented with 10% bovine calf serum at 37° C. under 5% CO2.
Apoptosis: Apoptosis was measured by cell cycle progression using propidium iodide (PI), considering the fraction beneath G0/G1.
Statistical analysis: Generally, the results are expressed as mean±standard deviation of 3 independent experiments. Apoptosis in the presence of tunicamycin and in the absence of other compounds was normalized to 100 to allow comparison between experiments. Significance by Two-tailed Student's t-test.
In order to assess the effect of the exemplary compounds on apoptosis, similar assays were performed in mouse embryonic fibroblasts (MEF; FIG. 1) and in STHdhQ111/111 cells (FIG. 2).

Lipophilicity (logD7.4) = format: physicochemical
Description: (§1) The solubility and lipophilicity of GLB7 and GLB11, two exemplary compounds according to some embodiments of the present invention, were measured compared to the PERK activator MK-28.

Solubility = format: physicochemical; conditions: for solubility compared to MK-28 (fold higher): relative to MK-28
Description: as §1

PERK = target: T1, PERK (Homo sapiens, UniProt Q9NZJ5); test: PERK activation: eIF2α phosphorylation relative to total eIF2α in HEK293 cells (Western blot); format: cell-based; conditions: for increase in eIF2α phosphorylation relative to total eIF2α: 24 hours
T1 construct: endogenous in cells; host or cells: HEK293
T1 sequence (Q9NZJ5 30-1116): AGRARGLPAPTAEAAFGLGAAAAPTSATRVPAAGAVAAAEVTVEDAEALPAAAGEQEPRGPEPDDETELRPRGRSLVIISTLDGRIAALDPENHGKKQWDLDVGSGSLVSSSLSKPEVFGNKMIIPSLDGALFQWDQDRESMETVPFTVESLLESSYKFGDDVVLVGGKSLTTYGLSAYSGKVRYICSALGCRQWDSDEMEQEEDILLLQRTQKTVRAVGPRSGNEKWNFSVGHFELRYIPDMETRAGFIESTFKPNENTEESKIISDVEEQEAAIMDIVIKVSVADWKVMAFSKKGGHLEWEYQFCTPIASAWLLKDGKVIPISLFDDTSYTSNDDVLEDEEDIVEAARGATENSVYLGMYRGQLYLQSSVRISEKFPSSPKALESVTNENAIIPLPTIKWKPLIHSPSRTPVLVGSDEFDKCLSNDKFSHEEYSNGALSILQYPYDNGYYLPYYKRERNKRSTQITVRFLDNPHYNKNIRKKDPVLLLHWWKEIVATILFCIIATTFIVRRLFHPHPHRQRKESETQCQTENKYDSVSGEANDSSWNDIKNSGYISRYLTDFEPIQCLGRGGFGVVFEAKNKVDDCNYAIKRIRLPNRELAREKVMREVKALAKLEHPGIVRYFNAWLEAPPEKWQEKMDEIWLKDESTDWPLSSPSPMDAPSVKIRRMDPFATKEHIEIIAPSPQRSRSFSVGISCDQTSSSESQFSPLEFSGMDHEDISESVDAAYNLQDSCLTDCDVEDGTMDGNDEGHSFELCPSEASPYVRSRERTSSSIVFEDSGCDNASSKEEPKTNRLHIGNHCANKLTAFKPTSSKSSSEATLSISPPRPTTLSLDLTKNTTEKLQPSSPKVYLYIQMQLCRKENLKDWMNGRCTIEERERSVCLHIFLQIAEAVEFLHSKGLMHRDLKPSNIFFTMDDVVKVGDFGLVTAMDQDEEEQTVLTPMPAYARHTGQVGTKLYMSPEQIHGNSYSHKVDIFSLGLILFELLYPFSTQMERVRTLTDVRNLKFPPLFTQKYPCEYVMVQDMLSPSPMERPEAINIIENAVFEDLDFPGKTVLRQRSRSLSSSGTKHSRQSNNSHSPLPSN
Description: FIG. 3A presents comparative bar graphs showing the effect of treatment with MK-28 or GLB7 (5 μM, 10 μM or 20 μM, as indicated), on the levels of eIF2α-phosphorylation (eIF2α-P) relatively to total eIF2α (eIF2α) in lysed HEK293 cells. Treatment with MK-28 began 24 hours before lysis. Data was obtained from quantification of Western blots (FIG. 3B), and immunoblotting was performed with anti-eIF2α-P or anti-total eIF2α antibodies.
For this purpose, HEK293 cells were untreated or treated with 5, 10 or 20 μM GLB7 or MK-28. After 24 hours, the cells were lysed and the phosphorylated eIF2α levels were measured relatively to the total eIF2α (a substrate of PERK).

Compound | reduction of apoptosis (STHdhQ111/111 cells) | logD (Lipophilicity (logD7.4); pH 7.4) | solubility (Solubility) | solubility compared to MK-28 (fold higher) (Solubility) | lipophilicity compared to MK-28 (Lipophilicity (logD7.4); relative to MK-28) | increase in eIF2α phosphorylation relative to total eIF2α (PERK; 5 μM) | increase in eIF2α phosphorylation relative to total eIF2α (PERK; 10 μM) | increase in eIF2α phosphorylation relative to total eIF2α (PERK; 20 μM) | PERK activation compared to MK-28 (PERK; lowest examined dose of 5 μM)
CN(/N=C/c1ccc(C(F)(F)F)cc1)c1nc(-c2ccccc2)cc(-c2ccccc2)n1 [GLC19, (E)-2-(1-methyl-2-(4-(trifluoromethyl)benzylidene) hydrazinyl)-4,6-diphenyl pyrimidine] | about 20% |  |  |  |  |  |  |  | 
CN(NCc1ccc(O)c(O)c1)c1nc(-c2ccccc2)cc(-c2ccccc2)n1 [GLB11] | about 20% | 4.8 | 6 µM (≈ 2.39 µg/mL) | > 4 fold |  |  |  |  | 
Oc1ccc(C=NNc2nc(-c3ccccc3)cc(-c3ccccc3)n2)cc1O (racemic) [GLB7, 4-((2-(4,6-diphenylpyrimidin-2-yl)hydrazono)methyl)benzene-1,2-diol] |  |  | 16 µM (≈ 6.12 µg/mL) | > 10 fold | decreased | ~70% | 50% | 65% | higher levels of PERK activation
